Values quoted from earlier work, collected in patent publication US20190209701A1, “COMBINATION THERAPY WITH A MEK INHIBITOR, A PD-1 AXIS INHIBITOR, AND A TAXANE” (Genentech, Inc., priority 2016, published 2019).
Like-named read-outs stand apart in the source and are kept apart here.

Tests used:
[1] = test system: cancer patients who harbored a BRAF, NRAS, or KRAS mutation
[2] = concentration-independent
human tumor cell lines = settings: through inhibition of MEK1 and MEK2
[3] = test system: human tumor xenograft models
[4] = not given; remark: listed apart in the source
[5] = not given; remark: listed apart in the source

Row | binding to plasma proteins [2] | dose linearity of pharmacokinetics (dose range of 0.05 mg/kg (approximately 3.5 mg for 70 kg adult) to 80 mg) | food effect on pharmacokinetics (fed state compared with fasted state, healthy subjects) | mean terminal half-life (t1/2) (oral) | absolute bioavailability (study MEK4952g in healthy subjects, 90% CI: 39.74%, 53.06%) | effect of proton pump inhibitor rabeprazole on pharmacokinetics (with or without high-fat meal vs cobimetinib alone in the fasted state) | Compound | response of colorectal cancer (CRC) patients ([1]; 14 CRC patients) | unconfirmed tumor responses ([1]; Stage III of Study MEK4592g, 2 patients) | patients with confirmed partial response (PR) ([1]; Study MEK4592g overall, 6 patients, all melanoma) | patients with progressive disease ([1]; Study MEK4592g overall, 40 patients) | proliferation of a variety of human tumor cell lines (human tumor cell lines) | tumor regression ([3]; dose dependent, highest doses tested, CRC, malignant melanoma, breast carcinoma, lung carcinoma models) | ERK phosphorylation in xenograft tumor models ([3]; xenograft tumor models) | exposure of fixed dose 800 mg q2w versus 1200 mg q3w ([4]; 800 mg every two weeks (equivalent to 10 mg/kg q2w) vs Phase III dose of 1200 mg q3w) | dose linearity of pharmacokinetics ([4]; doses ≥1 mg/kg every three weeks (q3w)) | Kaplan-Meier estimated overall 24-week progression-free survival (PFS) rate ([5]; Study PCD4989g, 95% CI: 12%, 53%) | anti-tumor activity ([5]; across doses from 1 to 20 mg/kg)
1 | 95% | linear pharmacokinetics | not altered | 48.8 h | 45.9% | minimal effect | O=C(c1ccc(F)c(F)c1Nc1ccc(I)cc1F)N1CC(O)([C@@H]2CCCCN2)C1 [Cobimetinib] | all patients experienced progressive disease | 11.1% | 6.2% | 41.2% | inhibits proliferation | up to 100% | inhibits ERK phosphorylation |  |  |  | 
2 |  |  |  |  |  |  | Atezolizumab: anti-PD-L1 antibody, CAS Registry Number: 1422185-06-5 |  |  |  |  |  |  |  | equivalent exposure | linear and consistent with typical IgG1 antibodies | 33% | anti-tumor activity has been observed
